Measured values: patent US20040053882A1, “Combination chemotherapy” (priority 2000, published 2004)
Like-named read-outs stand apart in the source and are kept apart here.

Legend:
[1] = test system: A2780 E6 (A2780 subline transfected with E6 human papillomavirus gene); test: Growth inhibition (sulforhodamine B assay), A2780E6; assay type: cell-based
[2] = test system: A2780cisR acquired cisplatin resistant subline; test: Growth inhibition (sulforhodamine B assay), A2780cisR; assay type: cell-based, human; conditions: for IC50: A2780cisR, drug alone
Description: (§1) Growth inhibition (using the sulforhodamine B assay) was determined for ZDO473 alone, and combined either simultaneously or administered sequentially (following washing) for 24 hours with paclitaxel. The effect of the drug combinations was analysed using median effect analysis.

[3] = test system: A2780 human ovarian carcinoma cell line; test: cells
Description: as §1

[4] = test system: CH1 human ovarian carcinoma cell line; test: cells; conditions: read-out: IC50 growth inhibition
Description: as §1

ADJ/PC6cisR tumour = test: Murine acquired cisplatin resistant tumour; conditions: tumour totally resistant to other platinum agents
41McisR ovarian line = conditions: resistance to cisplatin due to reduced uptake
[5] = test system: cisplatin-resistant CH1 ovarian tumour xenograft; test: Cisplatin-resistant CH1 ovarian tumour xenograft; conditions: even when progressing on cisplatin treatment
human tumour xenografts = test: In-vivo studies in human tumour xenografts; conditions: compared with cisplatin
[6] = monotherapy Phase I trial, interim results; cited from earlier work

Compound `CC(=O)O[C@H]1C(=O)[C@@]2(C)[C@H]([C@H](OC(=O)c3ccccc3)[C@]3(O)C[C@H](OC(=O)[C@H](O)[C@@H](NC(=O)c4ccccc4)c4ccccc4)C(C)=C1C3(C)C)[C@]1(OC(C)=O)CO[C@@H]1C[C@@H]2O` [Paclitaxel, paclitaxel, reference compound] has an IC50 ([1]; Homo sapiens, A2780/E6, drug alone) of 0.0208 µM, an IC50 ([2]; Homo sapiens) of 0.0035 µM and an IC50 ([3]; Homo sapiens, A2780, read-out: IC50 growth inhibition) of 2.5 nM. The IC50 ([4]; Homo sapiens, Ovarian carcinoma cell) was 3.1 nM.
With `N.N.[Cl][Pt][Cl]` [cisplatin, cis-dichlorodiammine platinum (II), reference compound] the “acquired cisplatin resistance of subline” value ([2]; A2780cisR versus A2780) was 15 fold.
For `Cc1ccccn1.N.[Cl-].[Cl-].[Pt+2]` [ZDO473, (SP-4-3)-(cis-amminedichloro-[2-methylpyridine]platinum (II)], the “activity against acquired cisplatin resistant murine tumour” value (ADJ/PC6cisR tumour) was “some activity was seen”, the “ability to overcome cisplatin resistance” value (41McisR ovarian line) was “showed the ability to overcome resistance” and the “activity versus cisplatin-resistant xenograft” value [5] was “Activity was retained”. For the same compound, the IC50 ([1]; 96 hour continuous exposure, drug alone) was 8.6 µM, the “recommended dose for phase II studies, initial” value (every 3 weeks) was 120 mg/m^2 and the current recommended dose (patients who tolerate higher doses) was 150 mg/m^2. For the same compound, the “antitumour activity in patients” value (small & non-small cell lung cancer, mesothelioma, head and neck, breast and ovarian cancers) was “Evidence of antitumour activity has been observed”, the “activity in human tumour xenografts” value (human tumour xenografts) was “at least comparable and in some cases superior to that of cisplatin” and the “cross-resistance of A2780cisR” value ([2]; A2780cisR versus A2780) was 4.2 fold. It also gave an IC50 ([2]; 96 hour continuous exposure) of 15.6 µM, an IC50 ([3]; read-out: IC50 growth inhibition, A2780, 96 hour continuous exposure, drug alone) of 3700 nM and an IC50 ([4]; CH1, 96 hour continuous exposure, drug alone) of 3300 nM. For the same compound, the dose-limiting toxicity [6] was “bone marrow suppression” and the “kidney or nerve toxicity” value [6] was “no evidence of kidney or nerve toxicity”.
